Laboratory results taken from US8937064B2, “Pyrazolo[1,5-a]pyrimidines useful as JAK2 inhibitors” (Vertex Pharmaceuticals Incorporated, priority 2007, dated 2015).

Legend:
JAK-2 enzyme = JAK-2 enzyme (Homo sapiens, UniProt O60674); test: JAK2 Inhibition Assay
JAK3 = molecular target: T1, JAK3 (Homo sapiens, UniProt P52333); test: JAK3 Inhibition Assay; format: biochemical; details: 1 nM JAK3, 1 μM poly(Glu)4Tyr, 5 μM ATP, 25° C., 33P incorporation
T1 sequence (P52333 1-1124): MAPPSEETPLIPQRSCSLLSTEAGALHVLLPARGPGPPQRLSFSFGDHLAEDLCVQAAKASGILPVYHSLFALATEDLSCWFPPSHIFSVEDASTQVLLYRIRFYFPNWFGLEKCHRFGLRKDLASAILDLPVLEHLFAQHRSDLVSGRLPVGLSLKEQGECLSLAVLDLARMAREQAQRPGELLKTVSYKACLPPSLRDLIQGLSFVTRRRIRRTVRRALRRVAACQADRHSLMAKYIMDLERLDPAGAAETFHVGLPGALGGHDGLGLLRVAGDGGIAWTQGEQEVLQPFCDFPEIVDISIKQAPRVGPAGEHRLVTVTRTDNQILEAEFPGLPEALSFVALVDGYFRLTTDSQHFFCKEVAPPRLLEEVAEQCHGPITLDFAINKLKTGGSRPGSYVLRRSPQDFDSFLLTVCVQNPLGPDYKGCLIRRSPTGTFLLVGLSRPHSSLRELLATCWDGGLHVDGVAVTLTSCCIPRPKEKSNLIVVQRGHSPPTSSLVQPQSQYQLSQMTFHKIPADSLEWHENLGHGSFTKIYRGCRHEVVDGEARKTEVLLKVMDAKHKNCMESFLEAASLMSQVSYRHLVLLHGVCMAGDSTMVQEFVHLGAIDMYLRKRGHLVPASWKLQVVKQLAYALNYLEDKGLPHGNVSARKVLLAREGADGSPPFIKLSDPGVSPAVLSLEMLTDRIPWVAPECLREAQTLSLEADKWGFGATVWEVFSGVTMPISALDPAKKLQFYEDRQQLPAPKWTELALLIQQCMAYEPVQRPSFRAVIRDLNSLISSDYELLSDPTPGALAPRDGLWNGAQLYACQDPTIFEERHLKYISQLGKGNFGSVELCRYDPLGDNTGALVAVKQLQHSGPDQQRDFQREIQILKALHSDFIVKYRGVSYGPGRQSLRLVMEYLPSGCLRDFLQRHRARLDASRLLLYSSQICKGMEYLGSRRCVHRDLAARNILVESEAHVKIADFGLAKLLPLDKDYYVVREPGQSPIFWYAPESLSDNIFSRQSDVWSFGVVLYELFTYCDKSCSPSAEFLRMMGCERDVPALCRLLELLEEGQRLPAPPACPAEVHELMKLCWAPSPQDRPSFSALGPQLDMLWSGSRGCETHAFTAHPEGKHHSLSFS

Sequence of JAK-2 enzyme (O60674 whole entry): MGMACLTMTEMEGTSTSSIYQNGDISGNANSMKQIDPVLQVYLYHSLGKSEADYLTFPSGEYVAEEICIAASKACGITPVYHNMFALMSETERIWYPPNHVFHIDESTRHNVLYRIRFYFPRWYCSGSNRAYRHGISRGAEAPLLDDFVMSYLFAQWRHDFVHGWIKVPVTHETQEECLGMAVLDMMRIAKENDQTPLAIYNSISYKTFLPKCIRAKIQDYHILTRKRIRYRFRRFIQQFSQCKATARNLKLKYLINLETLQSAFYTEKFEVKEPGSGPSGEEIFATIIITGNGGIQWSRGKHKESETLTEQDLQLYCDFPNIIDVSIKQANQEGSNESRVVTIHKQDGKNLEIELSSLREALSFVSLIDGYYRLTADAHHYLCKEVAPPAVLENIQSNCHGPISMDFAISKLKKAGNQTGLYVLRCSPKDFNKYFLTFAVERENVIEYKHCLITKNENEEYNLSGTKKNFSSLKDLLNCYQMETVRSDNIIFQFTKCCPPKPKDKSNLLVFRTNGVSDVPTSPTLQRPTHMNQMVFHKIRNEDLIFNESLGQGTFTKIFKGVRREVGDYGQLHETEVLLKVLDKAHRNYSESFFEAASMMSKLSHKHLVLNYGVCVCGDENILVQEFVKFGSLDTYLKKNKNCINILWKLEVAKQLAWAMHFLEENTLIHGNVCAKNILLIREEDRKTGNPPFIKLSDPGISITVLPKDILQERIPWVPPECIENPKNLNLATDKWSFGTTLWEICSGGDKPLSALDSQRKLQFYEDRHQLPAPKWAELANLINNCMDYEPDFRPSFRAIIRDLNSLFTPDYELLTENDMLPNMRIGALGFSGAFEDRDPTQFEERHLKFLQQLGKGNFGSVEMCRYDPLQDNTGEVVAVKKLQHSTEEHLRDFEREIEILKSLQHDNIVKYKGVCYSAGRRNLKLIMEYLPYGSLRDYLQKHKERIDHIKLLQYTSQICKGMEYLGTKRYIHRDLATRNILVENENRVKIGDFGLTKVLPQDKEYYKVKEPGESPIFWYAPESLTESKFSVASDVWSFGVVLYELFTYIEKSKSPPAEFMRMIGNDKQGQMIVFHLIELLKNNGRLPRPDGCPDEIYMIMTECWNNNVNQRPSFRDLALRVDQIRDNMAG

Compound	Ki (JAK-2 enzyme)	Ki (JAK3)
C[C@H](Nc1cc(-c2cnn3cccnc23)nc(OCCN2CCCC2=O)n1)c1ccc(F)cc1F [Compound 209]	< 10 nM	10 to 100 nM
C[C@H](Nc1cc(-c2cnn3cccnc23)nc(OCCN2CCNCC2)n1)c1ccc(F)cc1F [Compound 210]	< 10 nM	10 to 100 nM
C[C@H](Nc1cc(-c2cnn3cccnc23)nc(OCC2CCCN(C)C2)n1)c1ccc(F)cc1F (some centres unmarked) [Compound 215]	< 10 nM	10 to 100 nM
C[C@H](Nc1cc(-c2cnn3cccnc23)nc(OCCN2CCCCCC2)n1)c1ccc(F)cc1F [Compound 217]	< 10 nM	10 to 100 nM
CC(C)OCCOc1nc(N[C@@H](C)c2ccc(F)cc2F)cc(-c2cnn3cccnc23)n1 [Compound 219]	< 10 nM	10 to 100 nM
C[C@H](Nc1cc(-c2cnn3cccnc23)nc(OCCCNCc2ccncc2)n1)c1ccc(F)cc1F [Compound 220]	< 10 nM	10 to 100 nM
C[C@H](Nc1cc(-c2cnn3cccnc23)nc(OCC2CCOC2)n1)c1ccc(F)cc1F (some centres unmarked) [Compound 222]	< 10 nM	10 to 100 nM
C[C@H](Nc1cc(-c2cnn3cccnc23)nc(OCC2CCCC2)n1)c1ccc(F)cc1F [Compound 223]	10 to 100 nM	100 to 500 nM
O=C(Nc1ccnc(-c2cnn3cccnc23)c1)c1ccccc1F [Compound 228]	100 to 500 nM	500 to 5000 nM
O=C(Nc1ccnc(-c2cnn3cccnc23)c1)c1ccc(F)cc1F [Compound 229]	100 to 500 nM	500 to 5000 nM
N#Cc1cccc(C(=O)Nc2ccnc(-c3cnn4cccnc34)c2)c1 [Compound 230]	100 to 500 nM	500 to 5000 nM

Results, then the compound that gave them:

Ki (JAK-2 enzyme)	Ki (JAK3)	Compound
< 10 nM	10 to 100 nM	CC(C)NCCOc1nc(N[C@@H](C)c2ccc(F)cc2F)cc(-c2cnn3cccnc23)n1 [Compound 207]
< 10 nM	10 to 100 nM	CCN(CC)CCOc1nc(N[C@@H](C)c2ccc(F)cc2F)cc(-c2cnn3cccnc23)n1 [Compound 208]
< 10 nM	10 to 100 nM	C[C@H](Nc1cc(-c2cnn3cccnc23)nc(OCCCN(C)C)n1)c1ccc(F)cc1F [Compound 211]
< 10 nM	10 to 100 nM	CSCCOc1nc(N[C@@H](C)c2ccc(F)cc2F)cc(-c2cnn3cccnc23)n1 [Compound 212]
< 10 nM	10 to 100 nM	C[C@H](Nc1cc(-c2cnn3cccnc23)nc(OCCN2CCOCC2)n1)c1ccc(F)cc1F [Compound 213]
< 10 nM	100 to 500 nM	CC1CC1COc1nc(N[C@@H](C)c2ccc(F)cc2F)cc(-c2cnn3cccnc23)n1 (some centres unmarked) [Compound 214]
< 10 nM	100 to 500 nM	C[C@H](Nc1cc(-c2cnn3cccnc23)nc(OCC2CCCN2)n1)c1ccc(F)cc1F (some centres unmarked) [Compound 216]
10 to 100 nM	100 to 500 nM	C[C@H](Nc1cc(-c2cnn3cccnc23)nc(OC2CCNC2)n1)c1ccc(F)cc1F (some centres unmarked) [Compound 218]
< 10 nM	10 to 100 nM	C=CCOCCOc1nc(N[C@@H](C)c2ccc(F)cc2F)cc(-c2cnn3cccnc23)n1 [Compound 221]
10 to 100 nM	100 to 500 nM	C[C@H](Nc1ccnc(-c2cnn3cccnc23)n1)c1ccc(F)cc1 [Compound 224]
10 to 100 nM	500 to 5000 nM	CC[C@H](Nc1ccnc(-c2cnn3cccnc23)n1)c1ccc(F)c(F)c1 [Compound 225]
100 to 500 nM	500 to 5000 nM	C[C@H](Nc1ccnc(-c2cnn3cccnc23)n1)c1ccc(Cl)cc1 [Compound 226]
100 to 500 nM	500 to 5000 nM	O=C(Nc1ccnc(-c2cnn3cccnc23)c1)c1ccc(F)cc1 [Compound 227]
100 to 500 nM	500 to 5000 nM	O=C(Nc1ccnc(-c2cnn3cccnc23)c1)c1ccc(F)c(F)c1 [Compound 231]
